{"source": "ChEMBL document CHEMBL1201862", "about": "“PubChem BioAssay data set” (2004)", "key": {"Tumor necrosis factor [1]": {"biological_target": "T1, Tumor necrosis factor (Homo sapiens, UniProt P01375)", "T1 sequence (P01375 whole entry)": "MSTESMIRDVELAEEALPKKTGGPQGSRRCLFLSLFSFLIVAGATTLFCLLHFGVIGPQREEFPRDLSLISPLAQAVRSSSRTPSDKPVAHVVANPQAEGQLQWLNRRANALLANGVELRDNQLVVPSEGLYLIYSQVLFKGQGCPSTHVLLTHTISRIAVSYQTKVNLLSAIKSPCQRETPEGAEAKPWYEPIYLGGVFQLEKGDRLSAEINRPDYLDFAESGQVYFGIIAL", "assay": "TNFa-triggered NF-kB activation inhibitors, SAR follow-up, cell-based, revised (AID 2337)", "format": "functional"}, "[2]": {"biological_target": "T2, Nucleotide-binding oligomerization domain-containing protein 1 (Homo sapiens, UniProt Q9Y239)", "T2 sequence (Q9Y239 whole entry)": "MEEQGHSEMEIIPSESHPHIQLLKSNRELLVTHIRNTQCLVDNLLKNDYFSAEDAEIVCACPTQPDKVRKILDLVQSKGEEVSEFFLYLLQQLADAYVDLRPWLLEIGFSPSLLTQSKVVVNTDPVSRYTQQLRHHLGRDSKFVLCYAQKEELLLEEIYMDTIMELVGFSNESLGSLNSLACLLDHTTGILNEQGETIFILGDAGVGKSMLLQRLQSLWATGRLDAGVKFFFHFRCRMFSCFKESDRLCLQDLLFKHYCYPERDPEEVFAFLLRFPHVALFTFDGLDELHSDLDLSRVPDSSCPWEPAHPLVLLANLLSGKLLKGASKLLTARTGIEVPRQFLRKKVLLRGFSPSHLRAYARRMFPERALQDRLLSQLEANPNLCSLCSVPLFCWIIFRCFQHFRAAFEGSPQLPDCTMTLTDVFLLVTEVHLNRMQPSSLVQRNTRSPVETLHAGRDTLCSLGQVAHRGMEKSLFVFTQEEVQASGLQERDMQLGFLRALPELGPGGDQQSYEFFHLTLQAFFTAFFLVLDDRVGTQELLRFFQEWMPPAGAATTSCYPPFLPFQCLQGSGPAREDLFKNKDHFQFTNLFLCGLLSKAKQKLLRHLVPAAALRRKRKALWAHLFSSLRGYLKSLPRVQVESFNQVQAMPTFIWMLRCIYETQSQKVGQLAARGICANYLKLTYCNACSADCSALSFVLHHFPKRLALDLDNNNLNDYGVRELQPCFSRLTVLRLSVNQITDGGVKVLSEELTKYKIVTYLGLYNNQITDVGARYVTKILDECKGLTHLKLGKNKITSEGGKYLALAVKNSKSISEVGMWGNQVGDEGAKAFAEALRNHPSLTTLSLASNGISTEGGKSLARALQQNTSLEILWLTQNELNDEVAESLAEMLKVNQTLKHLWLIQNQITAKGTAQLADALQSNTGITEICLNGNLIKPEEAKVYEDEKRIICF", "assay": "NOD1 signaling inhibitors, SAR follow-up, revised (AID 2333)", "format": "functional"}, "HEK293 [3]": {"test_system": "HEK293", "assay": "cells", "settings": "Homo sapiens"}, "[4]": {"biological_target": "Alkaline phosphatase, placental type (Homo sapiens, UniProt P05187)", "sequence (P05187 whole entry)": "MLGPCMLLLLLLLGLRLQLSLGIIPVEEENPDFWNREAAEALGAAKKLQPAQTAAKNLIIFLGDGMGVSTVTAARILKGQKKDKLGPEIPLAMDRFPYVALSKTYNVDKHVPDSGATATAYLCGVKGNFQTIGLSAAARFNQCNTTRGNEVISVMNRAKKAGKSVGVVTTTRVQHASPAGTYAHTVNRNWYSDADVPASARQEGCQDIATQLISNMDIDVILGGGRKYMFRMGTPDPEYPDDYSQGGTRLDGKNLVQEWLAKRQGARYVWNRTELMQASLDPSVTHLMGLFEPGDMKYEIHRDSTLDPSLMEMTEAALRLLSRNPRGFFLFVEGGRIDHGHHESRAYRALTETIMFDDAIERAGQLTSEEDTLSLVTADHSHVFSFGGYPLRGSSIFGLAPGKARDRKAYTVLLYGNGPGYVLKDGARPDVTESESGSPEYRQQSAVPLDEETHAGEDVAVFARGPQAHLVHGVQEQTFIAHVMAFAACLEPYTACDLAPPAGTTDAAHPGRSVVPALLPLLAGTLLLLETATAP", "assay": "PLAP enzyme inhibitors, confirmation, biochemical, luminescence (AID 1512)", "format": "functional"}, "[5]": {"biological_target": "Glyceraldehyde-3-phosphate dehydrogenase (Homo sapiens, UniProt P04406)", "sequence (P04406 whole entry)": "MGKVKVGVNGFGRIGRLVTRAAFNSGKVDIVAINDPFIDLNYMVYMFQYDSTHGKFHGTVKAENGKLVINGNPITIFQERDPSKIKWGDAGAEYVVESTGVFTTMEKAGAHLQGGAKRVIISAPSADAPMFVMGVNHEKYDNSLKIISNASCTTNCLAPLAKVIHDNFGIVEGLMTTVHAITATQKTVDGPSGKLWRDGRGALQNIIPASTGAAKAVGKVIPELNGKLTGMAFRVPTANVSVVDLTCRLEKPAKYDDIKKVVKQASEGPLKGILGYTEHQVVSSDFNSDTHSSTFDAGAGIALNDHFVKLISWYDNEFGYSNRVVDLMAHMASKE"}, "[6]": {"biological_target": "T3, Alkaline phosphatase, tissue-nonspecific isozyme (Homo sapiens, UniProt P05186)", "T3 sequence (P05186 whole entry)": "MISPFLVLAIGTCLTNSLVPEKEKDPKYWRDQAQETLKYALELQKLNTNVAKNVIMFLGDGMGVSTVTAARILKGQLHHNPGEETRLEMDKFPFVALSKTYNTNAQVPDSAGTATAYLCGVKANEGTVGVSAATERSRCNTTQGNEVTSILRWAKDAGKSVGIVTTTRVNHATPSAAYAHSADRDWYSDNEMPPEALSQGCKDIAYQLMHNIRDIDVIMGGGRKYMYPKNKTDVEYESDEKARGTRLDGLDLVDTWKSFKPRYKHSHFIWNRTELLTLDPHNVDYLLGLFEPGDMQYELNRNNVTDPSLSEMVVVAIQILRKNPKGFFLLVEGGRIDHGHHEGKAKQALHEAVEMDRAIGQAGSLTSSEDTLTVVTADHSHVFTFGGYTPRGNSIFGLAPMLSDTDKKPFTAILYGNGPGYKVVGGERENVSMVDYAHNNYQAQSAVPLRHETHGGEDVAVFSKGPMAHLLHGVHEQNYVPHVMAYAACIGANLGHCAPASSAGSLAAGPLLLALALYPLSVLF", "assay": "human TNAP enzyme inhibitors, SAR follow-up, biochemical, luminescent, dose response (AID 1056)"}, "HEK293 [7]": {"test_system": "HEK293", "assay": "SAR analysis of compounds that are cytotoxic to HEK293 - Set 3. [Related pubchem assays (depositor defined):AID1575, AID1578, AID1848, AID1849, AID2001, AID2333, AID2334, AID2335, AID2337, AID2469]", "format": "functional, cell-based", "settings": "Homo sapiens"}, "Tumor necrosis factor [8]": {"biological_target": "T1, Tumor necrosis factor", "assay": "TNFa-triggered NF-kB activation inhibitors, SAR follow-up, cell-based, set 3 (AID 2801)", "format": "functional"}, "[9]": {"biological_target": "T4, Nucleotide-binding oligomerization domain-containing protein 2 (Homo sapiens, UniProt Q9HC29)", "T4 sequence (Q9HC29 whole entry, the tested form may be a part)": "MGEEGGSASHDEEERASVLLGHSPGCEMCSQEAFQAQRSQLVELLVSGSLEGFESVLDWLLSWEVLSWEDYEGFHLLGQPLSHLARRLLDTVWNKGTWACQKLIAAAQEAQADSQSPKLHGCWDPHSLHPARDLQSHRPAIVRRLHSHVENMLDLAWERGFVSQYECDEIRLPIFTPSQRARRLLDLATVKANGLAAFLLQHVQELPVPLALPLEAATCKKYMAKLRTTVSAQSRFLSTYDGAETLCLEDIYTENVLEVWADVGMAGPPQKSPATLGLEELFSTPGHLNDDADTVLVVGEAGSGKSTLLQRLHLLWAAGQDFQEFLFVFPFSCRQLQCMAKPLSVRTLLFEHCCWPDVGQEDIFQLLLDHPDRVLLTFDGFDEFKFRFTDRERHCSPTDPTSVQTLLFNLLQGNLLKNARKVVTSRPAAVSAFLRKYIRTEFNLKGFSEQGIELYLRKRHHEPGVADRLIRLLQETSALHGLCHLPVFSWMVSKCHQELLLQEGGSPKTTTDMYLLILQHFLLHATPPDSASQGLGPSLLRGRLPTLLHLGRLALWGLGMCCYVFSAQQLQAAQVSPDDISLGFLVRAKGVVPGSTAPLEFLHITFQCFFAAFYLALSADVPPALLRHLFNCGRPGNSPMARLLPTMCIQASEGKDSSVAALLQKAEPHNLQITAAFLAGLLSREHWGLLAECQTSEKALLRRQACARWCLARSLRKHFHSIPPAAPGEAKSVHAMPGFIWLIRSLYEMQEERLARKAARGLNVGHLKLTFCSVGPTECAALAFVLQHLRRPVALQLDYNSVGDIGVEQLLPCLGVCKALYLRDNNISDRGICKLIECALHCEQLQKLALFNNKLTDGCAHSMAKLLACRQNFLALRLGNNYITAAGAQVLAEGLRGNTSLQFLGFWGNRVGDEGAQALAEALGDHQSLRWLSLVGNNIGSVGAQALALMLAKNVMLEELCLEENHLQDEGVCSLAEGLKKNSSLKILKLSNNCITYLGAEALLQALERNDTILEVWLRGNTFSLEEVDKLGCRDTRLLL", "assay": "NOD2 signaling inhibitors, analog potency, SAR follow-up, cell-based, set 3 (AID 2799)", "format": "functional"}, "[10]": {"biological_target": "T2, Nucleotide-binding oligomerization domain-containing protein 1", "assay": "SAR analysis of compounds that inhibit NOD1 - Set 3. [Related pubchem assays (depositor defined):AID1566, AID1575, AID1578, AID1849, AID1852, AID2333, AID2335, AID2466]", "format": "functional"}, "HEK293 [11]": {"test_system": "HEK293", "assay": "cells", "format": "functional, cell-based", "settings": "Homo sapiens"}, "Nonstructural protein 1": {"biological_target": "Nonstructural protein 1 (Influenza A virus, UniProt Q194T2)", "sequence (Q194T2 whole entry)": "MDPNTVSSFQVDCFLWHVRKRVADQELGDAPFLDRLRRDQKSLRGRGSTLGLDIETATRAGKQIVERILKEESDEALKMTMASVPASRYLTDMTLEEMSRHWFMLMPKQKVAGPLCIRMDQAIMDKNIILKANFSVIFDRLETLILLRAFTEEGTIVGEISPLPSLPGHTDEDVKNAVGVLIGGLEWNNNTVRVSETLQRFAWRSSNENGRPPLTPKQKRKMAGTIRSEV", "format": "functional, Influenza A virus (A/California/07/2009(H1N1))"}, "HEK293 [12]": {"test_system": "HEK293", "assay": "NOD1 signaling inhibitors, primary screen, cell-based, luminescence, uHTS (AID 1578)", "format": "functional", "settings": "Homo sapiens"}, "HEK293 [13]": {"test_system": "HEK293", "assay": "cells", "format": "functional, cell-based", "settings": "Homo sapiens", "remark": "listed apart in the source"}, "[14]": {"biological_target": "T4, Nucleotide-binding oligomerization domain-containing protein 2", "assay": "NOD2 signaling inhibitors, cell-based, luminescence, uHTS, HEK293 (AID 1566)", "format": "functional"}, "HEK293 [15]": {"test_system": "HEK293", "assay": "NOD2 signaling inhibitors in MDP-stimulated cells, cell-based, uHTS, luminescence (AID 2001)", "format": "functional", "settings": "Homo sapiens"}, "HEK293 [16]": {"test_system": "HEK293", "assay": "cells", "format": "functional, cell-based", "settings": "Homo sapiens", "remark": "listed apart in the source"}, "[17]": {"biological_target": "Lysine-specific demethylase 4C (Homo sapiens, UniProt Q9H3R0)", "sequence (Q9H3R0 whole entry)": "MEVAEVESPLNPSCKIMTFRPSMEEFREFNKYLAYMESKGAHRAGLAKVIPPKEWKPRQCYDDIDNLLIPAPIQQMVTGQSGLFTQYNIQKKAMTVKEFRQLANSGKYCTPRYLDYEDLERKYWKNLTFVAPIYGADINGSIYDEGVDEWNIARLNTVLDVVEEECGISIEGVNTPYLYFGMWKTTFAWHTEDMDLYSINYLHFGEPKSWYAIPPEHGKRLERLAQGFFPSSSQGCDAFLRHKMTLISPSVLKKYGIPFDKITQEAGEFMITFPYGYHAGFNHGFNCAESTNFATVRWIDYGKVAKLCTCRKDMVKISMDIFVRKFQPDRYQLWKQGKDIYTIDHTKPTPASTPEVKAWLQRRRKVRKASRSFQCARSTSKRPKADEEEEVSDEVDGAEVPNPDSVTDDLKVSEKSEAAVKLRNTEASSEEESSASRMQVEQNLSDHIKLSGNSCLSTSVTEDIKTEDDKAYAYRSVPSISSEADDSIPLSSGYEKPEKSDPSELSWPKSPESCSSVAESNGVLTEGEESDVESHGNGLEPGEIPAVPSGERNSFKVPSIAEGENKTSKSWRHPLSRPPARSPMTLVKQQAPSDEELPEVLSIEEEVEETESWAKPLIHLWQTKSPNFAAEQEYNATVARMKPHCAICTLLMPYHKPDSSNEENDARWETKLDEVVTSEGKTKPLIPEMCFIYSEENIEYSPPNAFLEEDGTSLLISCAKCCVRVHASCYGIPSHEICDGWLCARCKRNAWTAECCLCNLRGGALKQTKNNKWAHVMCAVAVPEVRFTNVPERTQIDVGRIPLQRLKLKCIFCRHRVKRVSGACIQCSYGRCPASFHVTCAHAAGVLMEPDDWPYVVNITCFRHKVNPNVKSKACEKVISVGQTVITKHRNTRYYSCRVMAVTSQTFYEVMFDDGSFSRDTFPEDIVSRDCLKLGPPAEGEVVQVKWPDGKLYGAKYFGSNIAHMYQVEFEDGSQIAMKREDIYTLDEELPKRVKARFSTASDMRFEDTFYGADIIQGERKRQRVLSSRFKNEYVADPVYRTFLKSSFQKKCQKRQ", "assay": "GASC-1 (JMJD2C) histone demethylase inhibitors, dose response, biochemical, DELFIA europium, cherry-picked samples (AID 488835)", "format": "functional"}, "HEK293 [18]": {"test_system": "HEK293", "assay": "cells", "settings": "Homo sapiens", "remark": "listed apart in the source"}, "HEK293 [19]": {"test_system": "HEK293", "assay": "cells", "settings": "Homo sapiens", "remark": "listed apart in the source"}, "[20]": {"biological_target": "G-protein coupled receptor 55 (Homo sapiens, UniProt Q9Y2T6)", "sequence (Q9Y2T6 whole entry)": "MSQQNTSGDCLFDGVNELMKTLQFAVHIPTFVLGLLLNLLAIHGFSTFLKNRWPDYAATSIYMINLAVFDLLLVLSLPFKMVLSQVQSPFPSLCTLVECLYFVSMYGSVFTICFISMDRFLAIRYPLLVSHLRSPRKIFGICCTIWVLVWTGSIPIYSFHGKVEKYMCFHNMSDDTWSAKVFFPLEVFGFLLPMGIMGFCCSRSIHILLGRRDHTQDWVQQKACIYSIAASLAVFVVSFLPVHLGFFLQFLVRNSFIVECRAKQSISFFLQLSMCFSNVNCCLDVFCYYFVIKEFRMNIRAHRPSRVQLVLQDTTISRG", "assay": "GPR55 antagonists blocking LPI-driven arrestin recruitment, primary screen, imaging, U2OS, beta-arrestin-GFP, LPI agonist (AID 2013);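 further: antagonist potency measured as reduced agonist-driven arrestin aggregation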", "format": "functional"}, "[21]": {"biological_target": "Heat shock protein HSP 90-alpha (Homo sapiens, UniProt P07900)", "format": "functional, organism-based"}, "[22]": {"biological_target": "T5, Heat shock factor protein 1 (Mus musculus, UniProt P38532)", "T5 sequence (P38532 whole entry)": "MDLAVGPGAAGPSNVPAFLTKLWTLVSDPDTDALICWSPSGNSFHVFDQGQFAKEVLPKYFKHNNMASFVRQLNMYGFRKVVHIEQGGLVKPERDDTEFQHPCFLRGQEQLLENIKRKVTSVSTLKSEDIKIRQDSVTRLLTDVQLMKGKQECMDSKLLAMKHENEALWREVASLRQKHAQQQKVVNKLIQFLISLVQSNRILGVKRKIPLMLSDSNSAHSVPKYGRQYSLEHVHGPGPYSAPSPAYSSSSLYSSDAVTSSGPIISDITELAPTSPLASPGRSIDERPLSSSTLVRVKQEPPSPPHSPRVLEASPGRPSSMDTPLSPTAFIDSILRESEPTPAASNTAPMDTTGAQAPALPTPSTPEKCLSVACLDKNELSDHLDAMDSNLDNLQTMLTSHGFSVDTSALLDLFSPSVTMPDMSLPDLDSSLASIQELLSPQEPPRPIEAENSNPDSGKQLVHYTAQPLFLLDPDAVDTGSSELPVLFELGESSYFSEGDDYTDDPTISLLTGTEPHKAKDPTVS", "assay": "HSF1 potentiators in luciferase reporter cells, confirmation, cell-based, NIH3T3, luminescence, dose retest (AID 435004);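 further: stress induced by proteasome inhibitor MG132 added 30 min after compound; actives raise luminescence as potentiators of the MG132 stress response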", "format": "functional"}}, "note": "Calls of active or inactive are those of the source.", "data": [{"compound": "CC1Cc2cc(S(=O)(=O)N3CCN(c4ccc([N+](=O)[O-])cc4)CC3)ccc2N1C(=O)C1CC1", "note": "(stereo not drawn)", "values": [{"measurement": "IC50", "setting": "Tumor necrosis factor [1]", "value": "0.236 µM (active)"}, {"measurement": "IC50", "setting": "[2]", "value": "0.26 µM (active)"}, {"measurement": "IC50", "setting": "HEK293 [3]", "value": "15.2 µM (active)"}]}, {"compound": "COC(=O)c1cc(-c2cc(F)c(Cl)cc2Cl)n[nH]1", "values": [{"measurement": "IC50", "setting": "[4]", "value": "> 100 µM (inactive)"}, {"measurement": "IC50", "setting": "[5]", "value": "> 100 µM (not active)"}, {"measurement": "IC50", "setting": "[6]", "value": "0.911 µM (active)"}]}, {"compound": "COc1ccc(-c2cc(N)n(S(=O)(=O)c3ccc(F)c(C)c3)n2)cc1", "values": [{"measurement": "IC50", "setting": "HEK293 [7]", "value": "> 20 µM (inactive)"}, {"measurement": "IC50", "setting": "Tumor necrosis factor [8]", "value": "19.9 µM (active)"}, {"measurement": "IC50", "setting": "[9]", "value": "> 20 µM (inactive)"}, {"measurement": "IC50", "setting": "[10]", "value": "> 20 µM (inactive)"}]}, {"compound": "COc1cc(/C=C2\\CCC/C(=C\\c3ccc(O)c(OC)c3)C2=O)ccc1O", "note": "[CYCLOVALONE]", "values": [{"measurement": "IC50", "setting": "HEK293 [11]", "value": "> 20 µM (inactive)"}, {"measurement": "IC50", "setting": "Nonstructural protein 1", "value": "> 100 µM (active)"}, {"measurement": "EC50", "setting": "HEK293 [12]", "value": "4.94 µM (active)"}, {"measurement": "IC50", "setting": "HEK293 [13]", "value": "3.6 µM (active)"}, {"measurement": "EC50", "setting": "[14]", "value": "9.95 µM (active)"}, {"measurement": "IC50", "setting": "HEK293 [15]", "value": "3.75 µM (active)"}, {"measurement": "IC50", "setting": "HEK293 [16]", "value": "> 20 µM (inactive)"}]}, {"compound": "CCOc1ccc(NC(=O)CSc2nnc(-c3ccccc3)n2N)cc1", "values": [{"measurement": "AC50", "setting": "[17]", "value": "12.1 µM (active)"}]}, {"compound": "Cc1cccc(NC(=O)CSCC(=O)Nc2cc(C(F)(F)F)ccc2N2CCOCC2)c1", "values": [{"measurement": "EC50", "setting": "HEK293 [18]", "value": "> 59.6 µM (inactive)"}, {"measurement": "EC50", "setting": "HEK293 [19]", "value": "> 59.6 µM (inactive)"}]}, {"compound": "Clc1ccccc1CN(Cc1ccco1)Cc1nnnn1C1CCCC1", "values": [{"measurement": "IC50", "setting": "[20]", "value": "4.16 µM (active)"}, {"measurement": "AC50", "setting": "[21]", "value": "5.48 µM (active)"}, {"measurement": "EC50", "setting": "[22]", "value": "> 260 µM (inactive)"}]}]}
